Experimental findings from US20130253449A1, “NORADRENERGIC AND SPECIFIC SEROTONERGIC ANTIDEPRESSANT-CONTAINING TRANSDERMAL PATCH” (priority 2010, published 2013) are described below.

Data set [1] has as its system brain monoamine (NA, DA and 5-HT). Kind of data set: Measurement of brain monoamine level (microdialysis, prefrontal region) during 12-hour mirtazapine administration. Type of data set: in vivo, rat. Here is the method: Rats (male, body weight: 200 to 300 g, n=5) were anesthetized by inhalation of isoflurane, and then a cannula for long-term continuous administration was buried under the skin of each rat and a guide (microdialysis) was in the prefrontal region thereof. In 5 to 7 days after the guide insertion, a probe for measurement of monoamine in the brain was inserted into the prefrontal region, and via the microsyringe pump connected to the probe, a perfusate was perfused at a flow rate of 0.5 μL/min. For mirtazapine administration, a mirtazapine 3 mg/mL/kg solution was administered in a predetermined dose via the microsyringe pump, taking 12 hours. A Ringer' s solution was used as the perfusate, which was collected at intervals of 1 hour using a fraction collector.
(§1) Monoamine was measured from the perfusate collected by the fraction collector, and mirtazapine was measured from the plasma sample through HPLC.

A short description of data set [2]: Measurement of plasma mirtazapine level during 12-hour mirtazapine administration. It counts as in vivo. The settings on record: rat, subcutaneous, 6 hours after start of administration, 3 mg/mL/kg over 12 hours, read-out: mean concentration of mirtazapine in rat plasma (mean±SEM). Here is the method: Next, at the same dose mode and through the same administration route as above, mirtazapine (3 mg/mL/kg) was administered in a predetermined dose, taking 12 hours, and in 6 hours after the start, the blood was collected. The time at which the administration was started was referred to as the test start time. Heparin was added to the collected blood and then centrifuged, and the thus-separated plasma was the sample.
as §1

Setting [3] is: 18 hours after start of administration, mirtazapine 3 mg/mL/kg solution over 12 hours.

`CN1CCN2c3ncccc3Cc3ccccc3C2C1` (stereo not shown) [mirtazapine]: the “NA and DA in rat prefrontal region” value in data set [1] (1 hour after start of mirtazapine administration) is “increase in NA and DA was admitted”. For the same molecule, the “NA level in rat prefrontal region (mean±SEM)” value in data set [1] (7 hours after start of administration, mirtazapine 3 mg/mL/kg solution over 12 hours, n=5) stood at 184.7±17.3%. The “DA level in rat prefrontal region” value in data set [1] (8 hours after start of administration, mirtazapine 3 mg/mL/kg solution over 12 hours, n=5) is 222.1±38.5%. Moreover, in data set [1] (setting [3]), the “DA level in rat prefrontal region” value turned out to be 159.2±15.6% and the “NA level in rat prefrontal region” value is 124.2±10.7. In addition, the “influence on 5-HT in rat prefrontal region” value in data set [1] (mirtazapine 3 mg/mL/kg solution over 12 hours) is recorded as “no influence on 5-HT was admitted”. Also, the concentration at 6 h in data set [2] was determined as 27.5 ± 3.5 ng/mL.
